Data: PubChem BioAssay (NCI)
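All cell lines were grown in 96-well plates and treated with compound for 48 hours. Here, GI50 denotes the concentration required for 50% inhibition of growth. At the TGI there is no net growth.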

Experiments:
Assay in all cases: DTP human tumour cell line panel, 48 h
[1] = system: SF-268 CNS
[2] = system: HCC-2998 colon
[3] = system: HCT-116 colon
[4] = system: COLO 205 colon
[5] = system: SNB-19 CNS
[6] = system: HT29 colon
[7] = system: HOP-62 NSCLC
[8] = system: M14 melanoma
[9] = system: HL-60(TB) leukemia
[10] = system: OVCAR-4 ovarian

Compound	TGI [1]	TGI [2]	TGI [3]	TGI [4]	TGI [5]	TGI [6]	TGI [7]	TGI [8]	TGI [9]	TGI [10]	GI50 [1]	GI50 [2]	GI50 [3]	GI50 [4]	GI50 [5]	GI50 [6]	GI50 [7]	GI50 [8]	GI50 [9]	GI50 [10]
O=C1CC(c2ccccc2)NCN1 (stereo not given)	> 100 µM	> 100 µM	> 100 µM	> 100 µM	> 100 µM	> 100 µM	> 100 µM	> 100 µM	> 100 µM	> 100 µM	–	–	–	–	–	–	–	–	–	–
COc1ccc(/C(Cl)=C(\C=O)c2cc(OC)c(OC)c(OC)c2)cc1OC	> 100 µM	> 100 µM	> 100 µM	> 100 µM	> 100 µM	87.7 µM	> 100 µM	> 100 µM	58.6 µM	> 100 µM	–	–	–	–	–	–	–	–	–	–
Nc1c(C(=O)Nc2cccc3ccccc23)sc2nc3c(cc12)CCCCC3	> 50 µM	> 50 µM	> 50 µM	4.99 µM	> 50 µM	4 µM	> 50 µM	> 50 µM	2.87 µM	> 50 µM	2.82 µM	2.41 µM	0.407 µM	1.46 µM	0.662 µM	1.05 µM	2.63 µM	0.339 µM	0.202 µM	1.79 µM
CNC(=O)c1ccc(Nc2nc(OC3CCCC3)c3c(-c4ccc5nc(C)oc5c4)c[nH]c3n2)c(OC)c1	> 100 µM	> 100 µM	> 60.5 µM	> 100 µM	> 100 µM	> 100 µM	> 100 µM	> 100 µM	> 100 µM	> 100 µM	> 47.2 µM	> 100 µM	0.409 µM	0.208 µM	10 µM	4.99 µM	> 100 µM	16.9 µM	29.2 µM	5.59 µM
NC(=S)N/N=C1\C(=O)N(c2cccc([N+](=O)[O-])c2)C(=O)C1C(=O)Nc1cccc([N+](=O)[O-])c1 (stereo not given)	> 100 µM	> 100 µM	> 100 µM	> 100 µM	> 100 µM	> 100 µM	> 100 µM	> 100 µM	> 100 µM	> 100 µM	–	–	–	–	–	–	–	–	–	–
CCCN1C(=O)/C(=C/c2ccc(O)cc2)SC1=Nc1ccccc1	32.4 µM	47.4 µM	31.3 µM	51.3 µM	46.5 µM	86.7 µM	37.9 µM	> 100 µM	> 100 µM	49.5 µM	17.1 µM	22.9 µM	17.5 µM	22.7 µM	21.1 µM	33.5 µM	21.2 µM	48.7 µM	> 100 µM	25.2 µM
N#Cc1c(C(N)=O)ncn1Cc1ccccc1	> 100 µM	> 100 µM	> 100 µM	> 100 µM	> 100 µM	> 100 µM	> 100 µM	> 100 µM	> 100 µM	> 100 µM	–	–	–	–	–	–	–	–	–	–
O=S(=O)(NCCNc1cc(-c2cn(-c3ccccc3)nc2-c2cccc(O)c2)ccn1)c1ccc(F)cc1	8.93 µM	4.19 µM	10.4 µM	4.34 µM	31.7 µM	4.79 µM	5.44 µM	6.41 µM	6.22 µM	> 100 µM	2.42 µM	1.98 µM	2.86 µM	1.91 µM	3.72 µM	1.99 µM	1.98 µM	2.27 µM	2.43 µM	3.05 µM
COc1ccc2c(c1)C(=O)c1c-2c(N2CCN(C(=O)CN(C)C)CC2)nc2ccccc12	44.3 µM	40.5 µM	26.3 µM	28.1 µM	35.9 µM	12.7 µM	29.2 µM	31.5 µM	52.4 µM	29.5 µM	17.3 µM	15.2 µM	11.6 µM	13.3 µM	16.6 µM	2.13 µM	13.6 µM	15.6 µM	20 µM	13 µM
Nc1ccn(C2OC(COP(=O)(O)O)C(O)C2O)c(=O)n1 (stereo not given)	> 100 µM	> 100 µM	> 100 µM	> 100 µM	> 100 µM	> 100 µM	> 100 µM	> 44.9 µM	6.48 µM	> 100 µM	–	–	–	–	–	–	–	–	–	–
C[C@@H](Oc1cc(-c2cnn(C3CC4(CCNCC4)C3)c2)cnc1N)c1c(F)ccc(Cl)c1Cl	4.71 µM	3.1 µM	2.65 µM	0.864 µM	18.1 µM	2.17 µM	5.9 µM	2.61 µM	3.36 µM	6.53 µM	1.64 µM	1.42 µM	0.671 µM	0.293 µM	4.29 µM	0.446 µM	1.25 µM	1.15 µM	1.28 µM	1.79 µM
CCN(CC)CCCN1C(=O)c2c(c(C)c3c(oc4cc(O)ccc43)c2C)C1=O	3.34 µM	3.27 µM	3.11 µM	3.13 µM	3.35 µM	2.85 µM	3.29 µM	3.28 µM	3.67 µM	3.55 µM	1.74 µM	1.78 µM	1.62 µM	1.56 µM	1.75 µM	1.39 µM	1.73 µM	1.8 µM	1.69 µM	1.84 µM
COc1ccc(C(=O)c2ccc(OC)cc2OC)cc1	> 100 µM	41.3 µM	34.7 µM	3.51 µM	> 100 µM	24.4 µM	> 100 µM	> 100 µM	> 100 µM	> 100 µM	7.57 µM	6.54 µM	3.24 µM	1.65 µM	6.12 µM	2.92 µM	2.6 µM	2.47 µM	2.94 µM	6.54 µM
Cc1ccc(NC(=O)/C(=N/NC(=O)CC#N)C2C(=O)N(c3ccccc3)N=C2N)cc1C (stereo not given)	> 100 µM	> 100 µM	> 100 µM	> 100 µM	> 100 µM	> 100 µM	> 100 µM	> 100 µM	> 100 µM	> 100 µM	–	–	–	–	–	–	–	–	–	–
